Measurements: patent US9802899B2, “Heterocyclic compounds as pesticides” (BAYER CROPSCIENCE AG, priority 2012, dated 2017)

Experiment: Determination of the log P values by HPLC (formic acid method)
Format: physicochemical
Conditions: reversed-phase column (C 18), acidic range (pH 3.4), 55° C.; for chromatographic logP: reversed-phase HPLC column (C 18)
Protocol: 1) Description of Method for Determination of the Log P Values (Formic Acid Method)
Eluents for determination in the acidic range (pH 3.4):
Eluent A: acetonitrile+1 ml of formic acid/liter. Eluent B: water+0.9 ml of formic acid/liter.
The lambda max values were determined in the maxima of the chromatographic signals using the UV spectra from 200 nm to 400 nm.

Row | log P | chromatographic logP | SMILES
1 | 1.44 |  | Cc1ncccc1C(=O)Nc1ccn(-c2ccccc2Cl)n1 [Compound I-1-41]
2 |  | 1.5 | Cc1nc(F)c(-n2ccc(N)n2)cc1F [1-(2,5-Difluoro-6-methylpyridin-3-yl)-1H-pyrazole-3-amine]
3 | 2.27 |  | Cn1ccc([N+](=O)[O-])c1C(=O)Nc1ccn(-c2ncc(F)cc2F)n1 [Compound I-1-452]
4 | 2.68 |  | Cc1cccc(C)c1C(=O)Nc1ccn(-c2c(F)cccc2F)n1 [Compound I-1-268]
5 | 2.10 |  | CC1=C(C(=O)Nc2ccn(-c3ncc(F)cc3F)n2)CCCO1 [Compound I-1-548]
6 | 3.04 |  | O=C(Nc1cnn(-c2ccc(C(F)(F)F)cn2)n1)c1ccccc1I [Compound I-2-43]
7 | 2.28 |  | O=C(Nc1cnn(-c2ncc(F)cc2F)n1)c1ncccc1C(F)(F)F [Compound I-2-84]
8 | 2.26 |  | N#Cc1c(F)cccc1-n1ccc(NC(=O)c2cccnc2C(F)(F)F)n1 [Compound I-1-618]
9 | 2.74 |  | CCOc1c(F)cccc1-n1ccc(NC(=O)c2ccccc2Cl)n1 [Compound I-1-397]
10 | 3.11 |  | Cn1nc(C(C)(C)C)c([N+](=O)[O-])c1C(=O)Nc1ccn(-c2ncc(F)cc2F)n1 [Compound I-1-512]
11 | 2.92 |  | Cc1nn(-c2ccccc2Cl)nc1NC(=O)c1ccccc1I [Compound I-2-24]
12 | 3.58 |  | CCC(C)n1ncc(Cl)c1C(=O)Nc1ccn(-c2c(F)cccc2F)n1 (stereo not shown) [Compound I-1-244]
13 | 3.74 |  | O=C(c1ccccc1C(F)(F)F)N(C(=O)c1ccccc1C(F)(F)F)c1cnn(-c2ncccc2Cl)n1 [Compound I-2-52]
14 | 2.51 |  | Cc1cccc(C)c1C(=O)Nc1ccn(-c2ncc(F)cc2F)n1 [Compound I-1-480]
15 | 2.62 |  | O=C(Nc1nn(-c2ncc(F)cc2F)cc1Cl)c1ccccc1C(F)(F)F [Compound I-1-473]
16 | 4.87 |  | O=C(c1ccccc1C(F)(F)F)N(C(=O)c1ccccc1C(F)(F)F)c1nn(-c2ccccc2Cl)nc1Cl [Compound I-2-20]
17 | 2.53 |  | O=C(Nc1ccn(-c2ncc(F)cc2F)n1)c1ccccc1OC(F)F [Compound I-1-458]
18 | 2.95 |  | O=C(Nc1ccn(-c2ncc(Cl)cc2Cl)n1)c1ccccc1Br [Compound I-1-430]
19 | 3.26 |  | N#Cc1cc(F)c(-n2nc(NC(=O)c3ccccc3C(F)(F)F)c3c(F)cccc32)cc1F [Compound I-5-10]
20 | 2.31 |  | O=C(NC1=NN(c2c(F)cccc2F)CC1)c1ccccc1I [Compound I-4-4]
21 | 2.65 |  | O=C(Nc1ccn(-c2ncc(F)cc2F)n1)c1cc(F)ccc1C(F)(F)F [Compound I-1-506]
22 | 3.19 |  | Cn1nc(C(F)(F)C(F)(F)F)c(C#N)c1C(=O)Nc1ccn(-c2ncc(F)cc2F)n1 [Compound I-1-535]
23 | 2.17 |  | CC1=C(C(=O)Nc2ccn(-c3ncc(F)cc3F)n2)SCCO1 [Compound I-1-498]
24 | 2.50 |  | Cn1ncc(Br)c1C(=O)Nc1ccn(-c2c(F)cccc2F)n1 [Compound I-1-302]
25 |  | 1.47 | CCOc1cccc(F)c1-n1ccc(N)n1 [1-(2-Ethoxy-6-fluorophenyl)-1H-pyrazole-3-amine]
26 | 2.75 |  | CC1=C(C(=O)Nc2ccn(-c3ccccc3Cl)n2)SCCO1 [Compound I-1-372]
27 |  | 0.62 | Cc1cccc(C)c1-n1ccc(N)n1 [1-(2,6-Dimethylphenyl)-1H-pyrazole-3-amine]

Row | log P | chromatographic logP | SMILES
28 | 1.29 |  | CCc1ncccc1C(=O)Nc1ccn(-c2ncc(F)cc2F)n1 [Compound I-1-490]
29 | 2.32 |  | O=C(Nc1ccn(-c2ccc(F)cn2)n1)c1cccnc1C(F)(F)F [Compound I-1-597]
30 | 2.77 |  | O=C(Nc1ccn(-c2ncc(Cl)cc2Cl)n1)c1c(F)cccc1F [Compound I-1-429]
31 |  | 3.39 | O=C(Nc1ccn(-c2c(F)cc(C(F)(F)F)cc2F)n1)c1ccccc1C(F)(F)F [Compound I-1-230, N-{1-[2,6-Difluoro-4-(trifluoromethyl)phenyl]-1H-pyrazol-3-yl}-2-(trifluoromethyl)benzamide]
32 | 2.57 |  | O=C(Nc1ccn(-c2ncccc2C(F)(F)F)n1)c1ccccc1Cl [Compound I-1-425]
33 | 2.16 |  | O=C(Nc1ccn(-c2ncc(F)cc2F)n1)c1ccnn1C(F)F [Compound I-1-443]
34 | 3.11 |  | CC(C)n1nc([N+](=O)[O-])c(Cl)c1C(=O)Nc1ccn(-c2ncc(F)cc2F)n1 [Compound I-1-528]
35 | 3.03 |  | O=C(Nc1ccn(-c2ccccc2Cl)n1)c1ccccc1C(F)F [Compound I-1-13]
36 | 3.19 |  | Cc1cc(NC(=O)c2cccnc2C(F)(F)F)nn1-c1ccc(F)cc1F [Compound I-1-203]
37 | 2.83 |  | COc1ccccc1-n1ccc(NC(=O)c2ccccc2I)n1 [Compound I-1-411]
38 | 2.56 |  | O=C(Nc1ccn(-c2c(F)cccc2F)n1)C1=C(C(F)(F)F)OCCS1 [Compound I-1-102]
39 | 2.19 |  | Cn1nc(C(F)(F)F)c(C(=O)Nc2cnn(-c3ncccc3Cl)n2)c1F [Compound I-2-16]
40 | 3.24 |  | Cc1cccnc1C(=O)Nc1ccn(-c2ccccc2Cl)n1 [Compound I-1-38]
41 | 2.56 |  | Cc1nc(-n2ccc(NC(=O)c3c(F)cccc3F)n2)c(F)cc1F [Compound I-1-441]
42 | 2.46 |  | Cn1ncc(Cl)c1C(=O)Nc1ccn(-c2c(F)cccc2F)n1 [Compound I-1-311]
43 | 2.96 |  | O=C(Nc1ccn(-c2c(F)cccc2F)n1)c1ccccc1OC(F)(F)F [Compound I-1-79]
44 | 2.61 |  | O=C(Nc1ccn(-c2c(F)cccc2F)n1)c1cscc1Br [Compound I-1-305]
45 | 2.42 |  | O=C(Nc1ccn(-c2c(F)cccc2F)n1)c1c(F)cccc1F [Compound I-1-84]
46 | 1.72 |  | O=C(Nc1ccn(-c2ncc(F)cc2F)n1)c1cccnc1Cl [Compound I-1-152]
47 | 2.45 |  | O=C(Nc1ccn(-c2ccccc2Cl)n1)c1nccnc1Cl [Compound I-1-363]
48 | 2.22 |  | CC(=O)c1ccccc1C(=O)Nc1ccn(-c2ncc(F)cc2F)n1 [Compound I-1-481]
49 | 3.20 |  | Cc1ccc(-n2ccc(NC(=O)c3ccccc3Cl)n2)c(Cl)c1 [Compound I-1-339]
50 | 2.47 |  | COc1cccc(Cl)c1C(=O)Nc1ccn(-c2c(F)cccc2F)n1 [Compound I-1-271]
51 | 3.19 |  | O=C(Nc1ccn(-c2cncc(F)n2)n1)c1cccnc1Br [Compound I-1-404]
52 |  | 3.54 | O=C(Nc1nn(-c2ccccc2Cl)c2ccccc12)c1ccccc1C(F)(F)F [Compound I-5-8, N-[1-(2-Chlorophenyl)-1H-indazol-3-yl]-2-(trifluoromethyl)benzamide]
53 | 2.36 |  | O=C(Nc1cnn(-c2c(F)cccc2F)n1)c1ccncc1C(F)(F)F [Compound I-2-81]
54 | 2.72 |  | O=C(Nc1ccn(-c2ncccc2C(F)(F)F)n1)c1ccccc1I [Compound I-1-427]

Row | log P | chromatographic logP | SMILES
55 | 2.43 |  | Cc1occc1C(=O)Nc1ccn(-c2c(F)cccc2F)n1 [Compound I-1-281]
56 | 3.23 |  | Cc1ccc(-n2ccc(NC(=O)c3ccccc3Br)n2)c(Cl)c1 [Compound I-1-338]
57 | 4.04 |  | O=C(Nc1ccn(-c2cc(F)c(F)cc2F)n1)c1ccccc1C(F)(F)F [Compound I-1-191]
58 | 1.94 |  | O=C(Nc1ccn(-c2ncc(F)cn2)n1)c1ccccc1Br [Compound I-1-603]
59 |  | 1.85 | Cc1ccc(-n2ccc(N)n2)c(Cl)c1 [1-(2-Chloro-4-methylphenyl)-1H-pyrazole-3-amine]
60 | 2.41 |  | CC1=C(C(=O)Nc2ccn(-c3c(F)cccc3F)n2)SCCO1 [Compound I-1-101]
61 | 2.84 |  | O=C(Nc1ccn(-c2cnc(Cl)cn2)n1)c1ccccc1Br [Compound I-1-388]
62 | 2.40 |  | O=C(Nc1ccn(-c2c(F)cccc2F)n1)c1ccnn1C(F)F [Compound I-1-111]
63 | 1.83 |  | Cn1cc(C(=O)Nc2ccn(-c3ncc(Cl)cc3Cl)n2)c(I)n1 [Compound I-1-435]
64 | 3.02 |  | O=C(Nc1ccn(-c2cccc(F)c2F)n1)c1ccccc1Cl [Compound I-1-66]
65 | 2.53 |  | O=C(Nc1ccn(-c2c(F)cccc2F)n1)C1=C(C(F)F)OCCS1 [Compound I-1-611]
66 | 2.38 |  | N#Cc1ccccc1-n1ccc(NC(=O)c2ccccc2Cl)n1 [Compound I-1-8]
67 | 2.69 |  | CCc1cccc(F)c1C(=O)Nc1ccn(-c2ncc(F)cc2F)n1 [Compound I-1-487]
68 | 2.91 |  | O=C(Nc1ccn(-c2ncc(Cl)cc2F)n1)c1ccccc1C(F)(F)F [Compound I-1-587]
69 | 2.54 |  | O=C(Nc1cnn(-c2ncc(Cl)cc2Cl)n1)c1cccnc1C(F)(F)F [Compound I-2-64]
70 | 2.74 |  | O=C(Nc1ccn(-c2ncc(Cl)cc2F)n1)c1ccccc1Cl [Compound I-1-590]
71 | 2.38 |  | CSc1ncccc1C(=O)Nc1ccn(-c2c(F)cccc2F)n1 [Compound I-1-249]
72 | 1.92 |  | O=C(Nc1ccn(-c2ncc(F)cc2F)n1)c1ncncc1Cl [Compound I-1-545]
73 | 2.15 |  | Cc1nnsc1C(=O)Nc1ccn(-c2c(F)cccc2F)n1 [Compound I-1-326]
74 | 1.85 |  | Cc1cc(NC(=O)c2cccnc2Br)nn1-c1ccccc1Cl [Compound I-1-359]
75 | 2.99 |  | Cn1nc(C(F)(F)F)c(C(=O)Nc2ccn(-c3c(F)cccc3F)n2)c1C(F)(F)F [Compound I-1-238]
76 |  | 0.9 | Nc1ccn(-c2cncc(F)n2)n1 [1-(6-Fluoropyrazin-2-yl)-1H-pyrazole-3-amine]
77 | 2.80 |  | N#CCN(C(=O)c1ccccc1C(F)(F)F)c1ccn(-c2ncc(F)cc2F)n1 [Compound I-1-472]
78 | 4.87 |  | O=C(c1ccccc1Cl)N(C(=O)c1ccccc1Cl)c1nn(-c2ccccc2Br)nc1Cl [Compound I-2-30]
79 | 2.50 |  | O=C(Nc1ccn(-c2ccccc2[N+](=O)[O-])n1)c1ccccc1Br [Compound I-1-418]
